Experimental data: publication PMC7560626, “Active site competition is the mechanism for the inhibition of lipoprotein-associated phospholipase A2 by detergent micelles or lipoproteins and for the efficacy reduction of darapladib” (Scientific Reports, 2020)
Like-named read-outs stand apart in the source and are kept apart here.

Tests used:
Lp-PLA2 [1] = molecular target: T1, Lp-PLA2 (Homo sapiens, UniProt Q13093); assay: Kinetics of hydrolysis of 14:0 NPS-PC by recombinant Lp-PLA2; type: biochemical
T1 sequence (Q13093 22-441): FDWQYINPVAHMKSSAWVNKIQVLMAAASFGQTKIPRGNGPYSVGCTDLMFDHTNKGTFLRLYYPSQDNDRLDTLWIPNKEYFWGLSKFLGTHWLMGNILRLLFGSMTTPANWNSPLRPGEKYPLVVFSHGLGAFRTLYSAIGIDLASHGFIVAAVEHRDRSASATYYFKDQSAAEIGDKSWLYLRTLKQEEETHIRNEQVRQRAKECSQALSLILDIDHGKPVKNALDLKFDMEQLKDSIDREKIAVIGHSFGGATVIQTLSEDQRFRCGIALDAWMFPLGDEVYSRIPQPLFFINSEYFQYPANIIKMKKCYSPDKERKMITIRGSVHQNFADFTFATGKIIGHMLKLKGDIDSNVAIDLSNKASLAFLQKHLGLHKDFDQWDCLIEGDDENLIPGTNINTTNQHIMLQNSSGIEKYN
Experimental: (a) Fitting of kinetic model for hydrolysis of 14:0 NPS-PC in the absence and presence of 10 mM CHAPS. […] Details are in Experiment Procedures. (c) Determination of CMC for 14:0 NPS-PC and CHAPS by anisotropy of polarized fluorescence using fluorescein as probe. Details are in Experiment Procedures.
Lp-PLA2 activity was assayed under different conditions and different methods were used. […] Purified recombinant Lp-PLA2 in storage buffer was diluted into TBS or PBS, pH 7.4–7.6, at the concentration of 1 µg/ml and 20 µl of the solution were used for each reaction. […] Generally, hydrolysis of 14:0 NPS-PC was monitored at 405 nm for 5 min under ambient temperature for all kinetic assays. […] Lp-PLA2 kinetic assays were performed in the same assay buffer with 14:0 NPS-PC concentrations as indicated. Assays were carried out in 96-well plates using a SpectraMax m2e plate reader. Hydrolysis of 14:0 NPS-PC was monitored at 405 nm for 5 min under ambient temperature. Serum Lp-PLA2 activity and mass concentration were measured by using PLAC activity and mass test kits (diaDexus) following the manufacturer's instruction. PLAC mass measurements were performed by manual ELISA and PLAC activity measurements were carried out by the Beckman Coulter AU400 analyzer as described in a previous publication. Twenty or forty μl of the fractionated sample per tube were used, depending on the Lp-PLA2 concentration of the samples. Ten mM CHAPS-modified PLAC ELISA test kits were made by adding solid CHAPS to the assay buffer to the final concentration of 10 mM. The assays follow the same instructions as the unmodified PLAC mass test kits. Other Lp-PLA2 activity assays are as indicated in figures or other experimental sections.

[2] = CMC by polarized fluorescence anisotropy with fluorescein as probe; type: physicochemical; settings: TBS, pH 7.4
Experimental: CMC of CHAPS and 14:0 NPS-PC were determined by polarized fluorescence anisotropy based on the method by Thorsteinsson et al.[21] with modification in a Varian Cary Eclipse fluorescence spectrophotometer using fluorescein as probe. Fluorescein was dissolved in TBS, pH 7.4, at final concentration of 0.1 µM. Solid CHAPS (control) or 14:0 NPS-PC was dissolved in TBS-fluorescein solution at concentrations indicated in figure and subjected to serial dilution in the same buffer. All fleshly prepared solutions were measured for fluorescence emission at 520 nm (excited at 490 nm) and compared the emission optics for the horizontal orientation to the vertical orientation. The anisotropy ratio of fluorescence intensities was plotted against the concentration incrementation of CHAPS or 14:0 NPS-PC. The anisotropy ratio was calculated as the followings. Anisotropyratior=IVV-G×IVH÷IVV+2×G×IVH where IVV indicates the intensity with vertically polarized excitation and vertical polarization on the detected emission. IVH indicates the intensity when using a vertical polarizer on the excitation and horizontal polarizer on the emission. G is a grating factor used as a correction for the instrument’s differential transmission of the two orthogonal vector orientations.

[3] = Distribution in bulk phase, detergent micelles and lipoproteins by SEC (TSKgel G3000SWXL); type: physicochemical
Experimental: Figure 8 Distribution of 14:0 NPS-PC and darapladib under different conditions. Assay methods are described in Experimental Procedures. (a) Distribution of 14:0 NPS-PC in TBS, pH 7.4, with and without detergents. Twenty µl of 14:0 NPS-PC at 10 µM were resolved by a TSKgel G3000SWXL column in TBS, pH 7.4, containing no detergent, 10 mM CHAPS or 60 µM Tween-20. Absorbance at 260 nm were monitored for 14:0 NPS-PC. Bulk phase is after fraction number 17 or after elution time 17 min. (b) Distribution of darapladib in TBS, pH 7.4, with and without detergents. Forty µl of darapladib in mobile phase buffer at 0.2 µM were resolved by a TSKgel G3000SWXL column in TBS, pH 7.4, containing no detergent, 10 mM CHAPS or 600 µM Tween-20. Relative darapladib concentration in each fraction was shown by inhibition of spiked Lp-PLA2. (c) Distribution of darapladib in TBS, pH 7.4, containing HDL or LDL. Forty µl of 1 mg/ml HDL or LDL with or without 0.2 µM darapladib were resolved by a TSKgel G3000SWXL column in TBS, pH 7.4. Relative darapladib concentration in each fraction was quantitated by inhibition of spiked Lp-PLA2. (d) Distribution of darapladib in human serum. Forty µl of neat human serum with or without 150 µM darapladib under the conditions as indicated were resolved by a TSKgel G3000SWXL column in TBS, pH 7.4. Relative darapladib concentration in each fraction was determined by inhibition of spiked Lp-PLA2.
Fractionation chromatography was carried out on an Akta10 or Akta100 by using a 10 mm × 300 mm Sperose-6 column at ambient temperature with the flow rate of 0.3 ml per minute. Fifty to two hundred µl of serum samples were injected per run depending on the Lp-PLA2 concentrations of the samples after the column was equilibrated with the running buffer (PBS, pH 7.2). Fraction collection was started at 21 min after sample injection and the collection volume was 0.6 ml/tube. Distribution of 14:0 NPS-PC and darapladib were carried out by separation of 20 – 40 µl of samples on a TSKgel G3000SWXL (7.8 mm × 30 cm, 5 µm) in TBS, pH 7.4, with and without detergents using a HPLC at flow rate of 0.8 ml/min. Fractions were collected at 1 min per tube starting at 6 min and ending at 21 min. Signal of 14:0 NPS-PC was detected by monitoring at 260 nm. Darapladib were assayed based on its inhibition of Lp-PLA2 activity. To one hundred µl of fraction, 10 µl of Lp-PLA2 at the concentration of approximately 0.5 µg/ml were added and the mixture was incubated at ambient temperature for 30 min with shaking. Reaction was started by adding 50 µl of mixture of CHAPS, SNS (sodium 1-nonane sulfonate) and 14:0 NPS-PC in buffer of 150 mM HEPES, pH 7.5, containing 12 mM EDTA. The final concentrations of CHAPS, SNS and 14:0 NPS-PC were 5 mM, 10 mM and 50 µM respectively. The hydrolysis reaction was monitored at 405 nm for 5 min. Fractions were also assayed for residual Lp-PLA2 activity by mixing in 100 µl fraction with 50 µl buffer of 150 mM HEPES, pH 7.5, containing 30 mM SNS, 30 mM CHAPS, 12 mM EDTA and 1.6 mM 14:0 NPS-PC.

[4] = in Fig. 1a; source not stated; cited from earlier work
Lp-PLA2 [5] = test system: Lp-PLA2; parameters: method as in PMID 25173516, PMID 24678955; settings: 160 mg daily for 12 weeks; cited from earlier work

Molecule: CCCCCCCCCCCCCC(=O)OC[C@H](COP(=O)([O-])OCC[N+](C)(C)C)OC(=O)CCC(=O)Oc1ccc([N+](=O)[O-])cc1 [14:0 NPS-PC, 1-myristoyl-2-(4-nitrophenylsuccinyl)-sn-glycero-3-phosphocholine]
- Hill slope of the substrate titration curve (Lp-PLA2 [1]; absence of 10 mM CHAPS): approximately 2.0
- Hill slope of the substrate titration curve (Lp-PLA2 [1]; presence of 10 mM CHAPS): approximately 1.0
- Km (Lp-PLA2 [1]; with 10 mM CHAPS): 238 ± 11.7 µM
- Vmax (Lp-PLA2 [1]; with 10 mM CHAPS): 187 ± 2 nmol/min/mL
- Km (Lp-PLA2 [1]; without CHAPS): 187 ± 18.5 µM
- Vmax (Lp-PLA2 [1]; without CHAPS): 191 ± 5 nmol/min/mL
- CMC [2]: 0.5 to 1 mM
- form in bulk phase ([3]; 10 µM in TBS pH 7.4, absence of detergents): existed only as monomer
- monomeric fraction detected in bulk ([3]; 10 µM in TBS pH 7.4 in presence of detergents): Less than 5%
- fraction in mixed micelles ([3]; 10 µM in TBS pH 7.4 with 10 mM CHAPS or 60 µM Tween-20): > 95%

Molecule: C[C@H](CCC(=O)NCCC[N+](C)(C)CCCS(=O)(=O)[O-])[C@H]1CC[C@H]2[C@@H]3[C@H](O)C[C@@H]4C[C@H](O)CC[C@]4(C)[C@H]3C[C@H](O)[C@]12C [CHAPS, 3-[(3-Cholamidopropyl)dimethylammonio]-1-propanesulfonate]
- CMC [2]: 5 to 10 mM
- CMC [4]: 6 to 10 mM

Molecule: C[C@@H]1CC[C@@]2(OC1)O[C@H]1[C@@H](O)[C@H]3[C@@H]4CC[C@H]5C[C@@H](O[C@@H]6O[C@H](CO)[C@H](O[C@@H]7O[C@H](CO)[C@@H](O)[C@H](O[C@@H]8OC[C@@H](O)[C@H](O)[C@H]8O)[C@H]7O[C@@H]7O[C@H](CO)[C@H](O)[C@H](O[C@@H]8O[C@H](CO)[C@@H](O)[C@H](O)[C@H]8O)[C@H]7O)[C@H](O)[C@H]6O)[C@H](O)C[C@]5(C)[C@H]4CC[C@]3(C)[C@H]1[C@@H]2C [Digitonin]
- CMC [4]: 0.09 mM

Molecule: CCN(CC)CCN(Cc1ccc(-c2ccc(C(F)(F)F)cc2)cc1)C(=O)Cn1c(SCc2ccc(F)cc2)nc(=O)c2c1CCC2 [darapladib]
- reduction of Lp-PLA2 activity (Lp-PLA2 [5]): approximately 66%
- detection in TBS buffer (solubility) ([3]; 0.2 µM in TBS pH 7.4, absence of detergents): not detectable
- solubilization by detergents ([3]; 0.2 µM in TBS pH 7.4 with 10 mM CHAPS or 0.6 mM Tween-20): solubilized

Molecule: Triton X-100
- CMC [4]: 0.3 mM

Molecule: Tween-20
- mechanism of inhibition of Lp-PLA2 (Lp-PLA2 [1]; Lineweaver–Burk plots at different Tween-20 concentrations): competitive
- CMC [4]: 0.06 mM
